# Read-outs that look alike come from different tables or passages of the source.
# Columns and labels:
# Assay in all cases: Test F pre-/postemergence plant response
# Assay type in all cases: in vivo
# [1] = tested on: hairy beggarticks (Bidens pilosa); conditions: Bidens pilosa, scale 0 to 100, read-out: Plant response rating, Beggarticks
# From the text: (§1) Seeds of plant species selected from corn (Zea mays), soybean (Glycine max), velvetleaf (Abutilon theophrasti), lambsquarters (Chenopodium album), wild poinsettia (Euphorbia heterophylla), palmer pigweed (Amaranthus palmeri), waterhemp (common waterhemp, Amaranthus rudis), surinam grass (Brachiaria decumbens), large (Lg) crabgrass (Digitaria sanguinalis), Brazilian crabgrass (Digitaria horizontalis), fall panicum (Panicum dichotomiflorum), giant foxtail (Setaria faberii), green foxtail (Setaria viridis), goosegrass (Eleusine indica), johnsongrass (Sorghum halepense), ragweed (common ragweed, Ambrosia elatior), barnyardgrass (Echinochloa crus-galli), sandbur (southern sandbur, Cenchrus echinatus), arrowleaf sida (Sida rhombifolia), Italian ryegrass (Lolium multiflorum), dayflower (Virginia (VA) dayflower, Commelina virginica), field bindweed (Convolvulus arvensis), cocklebur (common cocklebur, Xanthium strumarium), momingglory (Ipomoea coccinea), nightshade (eastern black nightshade, Solanum ptycanthum), kochia (Kochia scoparia), yellow nutsedge (Cyperus esculentus), and hairy beggarticks (Bidens pilosa), were planted into a silt loam soil and treated preemergence with test chemicals formulated in a non-phytotoxic solvent mixture which included a surfactant.
# (§2) At the same time, plants from these crop and weed species and also waterhemp_RES1, (ALS & Triazine resistant common waterhemp, Amaranthus rudis), and waterhemp_RES2, (ALS & HPPD resistant common waterhemp, Amaranthus rudis) were treated with postemergence applications of test chemicals formulated in the same manner. Plants ranged in height from 2 to 18 cm for postemergence treatments (1- to 4-leaf stage).
# (§3) Treated plants and controls were maintained in a greenhouse for 14 to 21 days, after which time all species were compared to controls and visually evaluated. Plant response ratings, summarized in Table F, are based on a scale of 0 to 100 where 0 is no effect and 100 is complete control. A dash (-) response means no test result.
# [2] = tested on: waterhemp (common waterhemp, Amaranthus rudis); conditions: Amaranthus tuberculatus, scale 0 to 100, read-out: Plant response rating, Waterhemp
# From the text: as §1, §2, §3
# [3] = tested on: yellow nutsedge (Cyperus esculentus); conditions: Cyperus, pre-emergence, scale 0 to 100, read-out: Plant response rating, Nutsedge, Yellow
# From the text: as §1, §2, §3
# [4] = tested on: green foxtail (Setaria viridis); conditions: Setaria viridis, pre-emergence, scale 0 to 100, read-out: Plant response rating, Foxtail, Green
# From the text: as §1, §2, §3
# [5] = tested on: dayflower (Virginia (VA) dayflower, Commelina virginica); conditions: Commelina virginica, scale 0 to 100, read-out: Plant response rating, Dayflower, VA
# From the text: as §1, §2, §3
# [6] = tested on: wild poinsettia (Euphorbia heterophylla); conditions: Euphorbia heterophylla, scale 0 to 100, read-out: Plant response rating, Poinsettia, Wild
# From the text: as §1, §2, §3
# [7] = tested on: sandbur (southern sandbur, Cenchrus echinatus); conditions: Cenchrus echinatus, scale 0 to 100, read-out: Plant response rating, Sandbur
# From the text: as §1, §2, §3
# [8] = post-emergence, 8 g ai/ha Postemergence
# [9] = post-emergence, 16 g ai/ha Postemergence
# [10] = post-emergence, 31 g ai/ha Postemergence
# [11] = post-emergence, 62 g ai/ha Postemergence
# [12] = post-emergence, 125 g ai/ha Postemergence
# [13] = pre-emergence, 8 g ai/ha Preemergence
# [14] = pre-emergence, 16 g ai/ha Preemergence
# [15] = pre-emergence, 31 g ai/ha Preemergence
# [16] = pre-emergence, 62 g ai/ha Preemergence
# [17] = pre-emergence, 125 g ai/ha Preemergence
smiles,measurement,setting,value
"FC(F)c1cc(-c2ccccc2Oc2ncc(Cl)cn2)no1 [Compound 35, 5-chloro-2-[2-[5-(difluoromethyl)-3-isoxazolyl]phenoxy]pyrimidine]",pest or weed control at 8 g/ha,[1]; [8],50%
same,pest or weed control at 16 g/ha,[1]; [9],50%
same,pest or weed control at 31 g/ha,[1]; [10],60%
same,pest or weed control at 62 g/ha,[1]; [11],65%
same,pest or weed control at 125 g/ha,[1]; [12],70%
same,pest or weed control at 8 g/ha,[1]; [13],0%
same,pest or weed control at 16 g/ha,[1]; [14],0%
same,pest or weed control at 31 g/ha,[1]; [15],20%
same,pest or weed control at 62 g/ha,[1]; [16],20%
same,pest or weed control at 125 g/ha,[1]; [17],50%
same,pest or weed control at 8 g/ha,[2]; [8],70%
same,pest or weed control at 16 g/ha,[2]; [9],85%
same,pest or weed control at 31 g/ha,[2]; [10],90%
same,pest or weed control at 62 g/ha,[2]; [11],100%
same,pest or weed control at 125 g/ha,[2]; [12],100%
same,pest or weed control at 8 g/ha,[2]; [13],100%
same,pest or weed control at 16 g/ha,[2]; [14],100%
same,pest or weed control at 31 g/ha,[2]; [15],100%
same,pest or weed control at 125 g/ha,[2]; [17],100%
same,pest or weed control at 62 g/ha,"[2]; pre-emergence, Preemergence",100%
same,pest or weed control at 8 g/ha,[3]; 8 g ai/ha Preemergence,0%
same,pest or weed control at 16 g/ha,[3]; 16 g ai/ha Preemergence,0%
same,pest or weed control at 31 g/ha,[3]; 31 g ai/ha Preemergence,0%
same,pest or weed control at 125 g/ha,[3]; 125 g ai/ha Preemergence,35%
same,pest or weed control at 62 g/ha,[3]; Preemergence,10%
same,pest or weed control at 8 g/ha,[4]; 8 g ai/ha Preemergence,0%
same,pest or weed control at 16 g/ha,"[4]; 16 g ai/ha, Preemergence",0%
same,pest or weed control at 31 g/ha,"[4]; 31 g ai/ha, Preemergence",30%
same,pest or weed control at 125 g/ha,"[4]; 125 g ai/ha, Preemergence",98%
same,pest or weed control at 62 g/ha,[4]; Preemergence,75%
same,pest or weed control at 8 g/ha,[5]; [8],10%
same,pest or weed control at 16 g/ha,[5]; [9],40%
same,pest or weed control at 31 g/ha,[5]; [10],40%
same,pest or weed control at 62 g/ha,[5]; [11],50%
same,pest or weed control at 125 g/ha,[5]; [12],80%
same,pest or weed control at 8 g/ha,[5]; [13],0%
same,pest or weed control at 16 g/ha,[5]; [14],25%
same,pest or weed control at 31 g/ha,[5]; [15],65%
same,pest or weed control at 62 g/ha,[5]; [16],90%
same,pest or weed control at 125 g/ha,[5]; [17],95%
same,pest or weed control at 8 g/ha,[6]; [8],30%
same,pest or weed control at 16 g/ha,[6]; [9],40%
same,pest or weed control at 31 g/ha,[6]; [10],50%
same,pest or weed control at 62 g/ha,[6]; [11],50%
same,pest or weed control at 125 g/ha,[6]; [12],80%
same,pest or weed control at 8 g/ha,[6]; [13],20%
same,pest or weed control at 16 g/ha,[6]; [14],30%
same,pest or weed control at 31 g/ha,[6]; [15],35%
same,pest or weed control at 125 g/ha,[6]; [17],40%
same,pest or weed control at 62 g/ha,"[6]; pre-emergence, Preemergence",70%
same,pest or weed control at 8 g/ha,[7]; [8],0%
same,pest or weed control at 16 g/ha,[7]; [9],0%
same,pest or weed control at 31 g/ha,[7]; [10],0%
same,pest or weed control at 62 g/ha,[7]; [11],0%
same,pest or weed control at 125 g/ha,[7]; [12],0%
same,pest or weed control at 8 g/ha,[7]; [13],0%
same,pest or weed control at 16 g/ha,[7]; [14],10%
same,pest or weed control at 31 g/ha,[7]; [15],10%
same,pest or weed control at 125 g/ha,[7]; [17],65%
same,pest or weed control at 62 g/ha,"[7]; pre-emergence, Preemergence",40%
